Source: PMC1976805, “Preclinical pharmacokinetics of benznidazole” (British Journal of Cancer, 1984)
Where two headings read alike, the source gives them in different places.

Columns and labels:
[1] = Whole plasma pharmacokinetics in sheep (HPLC); format: in vivo; details: for half-life: male, Clun Forest/Border Leicester cross, sheep, plasma, iv
From the text: Br. J. Cancer (1984), 50, 291-303 Preclinical pharmacokinetics of benznidazole P. Workman', R.A.S. White2, M.I. Walton', L.N. Owen2* & P.R. Twentyman' 1MRC Clinical Oncology and Radiotherapeutics Unit, MRC Centre, Hills Road, Cambridge CB2 2QH, and 2Department of Clinical Veterinary Medicine, University of Cambridge, Madingley Road, Cambridge CB3 OES, UK. […] We have investigated the detailed pharmacokinetics of benznidazole in mice, dogs and sheep to provide a data base for the estimation of doses required for chemosensitization in man. Pharmacokinetic behaviour was linear except at high doses in mice. Absorption was fairly rapid and bioavailability was complete following both i.p. administration in mice and oral administration in dogs. Elimination t4 values were longer than for MISO, being 90 min in mice, 4-5 h in sheep and 9-11 h in dogs. At doses giving linear kinetics, peak whole plasma concentrations per administered mgkg-1 were 0.75 jigml-1 for the i.p. route in mice and 1.8jugmlP' for the oral route in dogs. Though between 39 and 59% of plasma benznidazole was bound to protein, tissue penetration was generally good. Tissue/whole plasma ratios ranged from 59-99% for transplantable mouse tumours and from 14-70% for spontaneous dog neoplasms. Nervous tissue penetration was similar to that in tumours: brain/whole plasma ratios averaged between 61 and 76% in mice and 42% in dogs, while peripheral nerve/whole plasma ratios in dogs averaged 74%. Mean liver/whole plasma ratios were 42% and 71% in BALB/c and C3H/He mouse strains respectively. Only -5% of the administered dose was excreted unchanged in the urine, indicating the likelihood of extensive metabolism. […] Enhancement of CCNU response is likely to require circulating benznidazole concentrations of 10-30 pgml-1 and we predict that these will be obtained with oral doses of 6-20 mgkg- 1 in man. […] This enhancement, or chemosensitization, is usually greater than that seen in dose-limiting normal tissues, resulting in an improved therapeutic index. Because of the relatively high doses of MISO usually required for chemosensitization in mice (see above refs), and also because of its neurotoxicity in man (Dische et al., 1977), we have been interested in finding an improved chemosensitizer. […] The lipophilic ana- logue benznidazole (N-benzyl-(2-nitroimidazolyl) acetamide, Ro 07-1051; Radanil; Roche), the structure of which is shown in Figure 1, was selected for detailed study because of its ability to *Present address: Animal Health Trust, Small Animals Centre, Lanwades Park, Kennett, Newmarket, Suffolk CB8 7PN, UK. Correspondence: P. Workman. […] These findings have been confirmed independently by Siemann et al. (1983). Although benznidazole is used quite widely in South America to treat patients with the trypanosomal infection Chagas' disease or with mucotaneous Leishmaniasis (Barclay et al., 1978; Cerisola et al., 1978; Coura et al., 1978; Fava et al., 1978), apart from our preliminary studies (White et al., 1982) the only published data on its pharmaco- kinetics are for human plasma concentrations measured by polarography (Raaflub & Ziegler, 1979; Raaflub, 1980). Here we describe the pharmacokinetics of benznidazole in the mouse, sheep and dog, as determined by high-performance liquid chromatography (HPLC). […]

[2] = 24 h urinary recovery of unchanged drug in mice; format: in vivo, mouse; details: for dose excreted: male, BALB/c, mouse, urine, ip, 650 mg kg-1, BALB/c mice, 650 mg kg-1 i.p.
From the text: Br. J. Cancer (1984), 50, 291-303 Preclinical pharmacokinetics of benznidazole P. Workman', R.A.S. White2, M.I. Walton', L.N. Owen2* & P.R. Twentyman' 1MRC Clinical Oncology and Radiotherapeutics Unit, MRC Centre, Hills Road, Cambridge CB2 2QH, and 2Department of Clinical Veterinary Medicine, University of Cambridge, Madingley Road, Cambridge CB3 OES, UK. […] We have investigated the detailed pharmacokinetics of benznidazole in mice, dogs and sheep to provide a data base for the estimation of doses required for chemosensitization in man. Pharmacokinetic behaviour was linear except at high doses in mice. Absorption was fairly rapid and bioavailability was complete following both i.p. administration in mice and oral administration in dogs. Elimination t4 values were longer than for MISO, being 90 min in mice, 4-5 h in sheep and 9-11 h in dogs. At doses giving linear kinetics, peak whole plasma concentrations per administered mgkg-1 were 0.75 jigml-1 for the i.p. route in mice and 1.8jugmlP' for the oral route in dogs. Though between 39 and 59% of plasma benznidazole was bound to protein, tissue penetration was generally good. Tissue/whole plasma ratios ranged from 59-99% for transplantable mouse tumours and from 14-70% for spontaneous dog neoplasms. Nervous tissue penetration was similar to that in tumours: brain/whole plasma ratios averaged between 61 and 76% in mice and 42% in dogs, while peripheral nerve/whole plasma ratios in dogs averaged 74%. […] Although benznidazole is used quite widely in South America to treat patients with the trypanosomal infection Chagas' disease or with mucotaneous Leishmaniasis (Barclay et al., 1978; Cerisola et al., 1978; Coura et al., 1978; Fava et al., 1978), apart from our preliminary studies (White et al., 1982) the only published data on its pharmaco- kinetics are for human plasma concentrations measured by polarography (Raaflub & Ziegler, 1979; Raaflub, 1980). Here we describe the pharmacokinetics of benznidazole in the mouse, sheep and dog, as determined by high-performance liquid chromatography (HPLC). […]

[3] = Penetration into whole brain of BALB/c mice bearing EMT6 tumours; format: in vivo, mouse; details: for brain/whole plasma ratio (% ± s.e.) / brain/whole plasma ratio (s.e., n=5): 650 mg kg-1 i.p.; for tumour/brain ratio (% + s.e.): EMT6, 650 mg kg-1 i.p.; for brain/whole plasma ratio (s.e., n=5): experiment b; for Kp: male, BALB/c, mouse, whole brain / whole plasma
From the text: (§1) Br. J. Cancer (1984), 50, 291-303 Preclinical pharmacokinetics of benznidazole P. Workman', R.A.S. White2, M.I. Walton', L.N. Owen2* & P.R. Twentyman' 1MRC Clinical Oncology and Radiotherapeutics Unit, MRC Centre, Hills Road, Cambridge CB2 2QH, and 2Department of Clinical Veterinary Medicine, University of Cambridge, Madingley Road, Cambridge CB3 OES, UK. […] We have investigated the detailed pharmacokinetics of benznidazole in mice, dogs and sheep to provide a data base for the estimation of doses required for chemosensitization in man. Pharmacokinetic behaviour was linear except at high doses in mice. Absorption was fairly rapid and bioavailability was complete following both i.p. administration in mice and oral administration in dogs. Elimination t4 values were longer than for MISO, being 90 min in mice, 4-5 h in sheep and 9-11 h in dogs. At doses giving linear kinetics, peak whole plasma concentrations per administered mgkg-1 were 0.75 jigml-1 for the i.p. route in mice and 1.8jugmlP' for the oral route in dogs. Though between 39 and 59% of plasma benznidazole was bound to protein, tissue penetration was generally good. Tissue/whole plasma ratios ranged from 59-99% for transplantable mouse tumours and from 14-70% for spontaneous dog neoplasms. Nervous tissue penetration was similar to that in tumours: brain/whole plasma ratios averaged between 61 and 76% in mice and 42% in dogs, while peripheral nerve/whole plasma ratios in dogs averaged 74%. Mean liver/whole plasma ratios were 42% and 71% in BALB/c and C3H/He mouse strains respectively. Only -5% of the administered dose was excreted unchanged in the urine, indicating the likelihood of extensive metabolism. […] Enhancement of CCNU response is likely to require circulating benznidazole concentrations of 10-30 pgml-1 and we predict that these will be obtained with oral doses of 6-20 mgkg- 1 in man. […] This enhancement, or chemosensitization, is usually greater than that seen in dose-limiting normal tissues, resulting in an improved therapeutic index. Because of the relatively high doses of MISO usually required for chemosensitization in mice (see above refs), and also because of its neurotoxicity in man (Dische et al., 1977), we have been interested in finding an improved chemosensitizer. […] The lipophilic ana- logue benznidazole (N-benzyl-(2-nitroimidazolyl) acetamide, Ro 07-1051; Radanil; Roche), the structure of which is shown in Figure 1, was selected for detailed study because of its ability to *Present address: Animal Health Trust, Small Animals Centre, Lanwades Park, Kennett, Newmarket, Suffolk CB8 7PN, UK. Correspondence: P. Workman. […] These findings have been confirmed independently by Siemann et al. (1983). Although benznidazole is used quite widely in South America to treat patients with the trypanosomal infection Chagas' disease or with mucotaneous Leishmaniasis (Barclay et al., 1978; Cerisola et al., 1978; Coura et al., 1978; Fava et al., 1978), apart from our preliminary studies (White et al., 1982) the only published data on its pharmaco- kinetics are for human plasma concentrations measured by polarography (Raaflub & Ziegler, 1979; Raaflub, 1980). Here we describe the pharmacokinetics of benznidazole in the mouse, sheep and dog, as determined by high-performance liquid chromatography (HPLC). […] The Macmillan Press Ltd., 1984 292 P. WORKMAN et al. particularly on plasma and tumour concentrations, have been used as a basis for the estimation of the benznidazole doses required in a Phase I trial of benznidazole plus CCNU, at present ongoing in our Unit. Materials and methods Animals and tumours Adult inbred male BALB/c mice were obtained from OLAC (Southern) Ltd. (Bicester, UK) and adult inbred C3H/He mice of both sexes from OLAC and our own breeding colony. Mice were housed in plastic cages on sawdust bedding made from soft white woods, and allowed laboratory chow and water ad lib. They were used at 20-35 g body wt.

[4] = Penetration into mouse liver; format: in vivo; details: BALB/c, 78 mg kg-1 i.p.
From the text: as §1

half-life ([1]; 4 mg/kg, sheep 1, 4 mg kg-1 i.v., read-out: elimination t1/2 (95% confidence limits) (converted)): 5.2 h | half-life ([1]; 4 mg/kg, sheep 2, 4 mg kg-1 i.v., read-out: elimination t1/2 (95% confidence limits) (converted)): 3.8 h | half-life ([1]; summary value, read-out: elimination t1/2): 4 to 5 h | peak whole plasma concentration ([1]; sheep 1, 4 mg kg-1 i.v.): 3.6 µg/mL | peak whole plasma concentration ([1]; sheep 2, 4 mg kg-1 i.v.): 2.5 µg/mL | dose excreted ([2]; experiment 1): 4.8% | dose excreted ([2]; experiment 2): 5.2% | administered dose excreted unchanged in the urine ([2]; summary value): approximately 5% | brain/whole plasma ratio (% ± s.e.) ([3]; Exp 1 (a), n=16): 61+5% | tumour/brain ratio (% + s.e.) ([3]; Exp 1 (a), n=16): 120+33% | brain/whole plasma ratio (% ± s.e.) ([3]; Exp 2 (b), n=20): 68+3% | tumour/brain ratio (% + s.e.) ([3]; Exp 2 (b), n=20): 116+5% | brain/whole plasma ratio (% ± s.e.) ([3]; Exp 3 (c), n=20): 76+4% | tumour/brain ratio (% + s.e.) ([3]; Exp 3 (c), n=20): 99+7% | brain/whole plasma ratio (s.e., n=5) ([3]; 45 min): 56+3% | brain/whole plasma ratio (s.e., n=5) ([3]; 75 min): 69+3% | brain/whole plasma ratio (s.e., n=5) ([3]; 105 min): 71+5% | brain/whole plasma ratio (s.e., n=5) ([3]; 135 min): 75 +5% | Kp ([3]; mice, discussion comparison with MISO, read-out: brain/whole plasma ratio): 0.68 | Kp ([3]; read-out: brain/whole plasma ratios, range of averages): 0.61 to 0.76 | liver/whole plasma ratio, overall mean ([4]; 0.5-6 h): 41.7% | liver concentration ([4]; 0.5 h): 20.8 µg/g | whole plasma concentration ([4]; 0.5 h): 45.3 µg/mL | liver concentration ([4]; 3.0 h): 10.3 µg/g | whole plasma concentration ([4]; 3.0 h): 29.8 µg/mL | liver concentration ([4]; 6.0 h): 8.2 µg/g | whole plasma concentration ([4]; 6.0 h): 12.2 µg/mL
SMILES: O=C(Cn1ccnc1[N+](=O)[O-])NCc1ccccc1 [benznidazole, N-benzyl-(2-nitroimidazolyl) acetamide]
